# Measurements reported in US10555951B2, “Targeted treatment of leiomyosarcoma” (Eli Lilly and Company, priority 2015, dated 2020).
# Where “and” joins values, the source holds several entries; their conditions need not be identical. Identical values can stand only once.
# Legend:
# [1] = Atropisomer equilibrium in solution by 1H NMR and LC-MS; format: physicochemical; settings: ambient temperature, after 24 hours
# Protocol: In aqueous solutions, 8-9% of atropisomer 2 (minor atropisomer) is detected by ^1H NMR and LC-MS in equilibrium with atropisomer 1 (major atropisomer) at ambient temperature after 24 hours. In organic solvents, at ambient temperature after 24 hours, approximately 1-2% of atropisomer 2 is detected by ^1H NMR and LC-MS in equilibrium with atropisomer 1. Although detectable by ^1H NMR and LC-MS analysis, atropisomer 2 is not isolable.
# leiomyosarcoma tumor [2] = experiment: Clinical evaluation: leiomyosarcoma patients, cycle 1, CT scan and DCE-US (Table 2); format: in vivo, human
# Source text: A study of 4,4,4-Trifluoro-N-[(1S)-2-[[(7S)-5-(2-hydroxyethyl)-6-oxo-7H-pyrido[2,3-d][3]benzazepin-7-yl]amino]-1-methyl-2-oxo-ethyl]butanamide hydrate in patients with advanced or metastatic cancer.
# (§1) This study is a multicenter, nonrandomized, open-label, dose-escalation study followed by cohort expansion of oral dosed 4,4,4-trifluoro-N-[(1S)-2-[[(7S)-5-(2-hydroxyethyl)-6-oxo-7H-pyrido[2,3-d][3]benzazepin-7-yl]amino]-1-methyl-2-oxo-ethyl]butanamide hydrate in outpatients with advanced or metastatic cancer.
# (§2) 4,4,4-Trifluoro-N-[(1S)-2-[[(7S)-5-(2-hydroxyethyl)-6-oxo-7H-pyrido[2,3-d][3]benzazepin-7-yl]amino]-1-methyl-2-oxo-ethyl]butanamide hydrate, dose range 2.5 to 100 mg, given orally as capsules 3 times per week during a 28-day cycle.
# (§3) 4,4,4-Trifluoro-N-[(1S)-2-[[(7S)-5-(2-hydroxyethyl)-6-oxo-7H-pyrido[2,3-d][3]benzazepin-7-yl]amino]-1-methyl-2-oxo-ethyl]butanamide hydrate will be administered orally TIW during both the dose-escalation phase (Part A) and the dose-confirmation phase (Part B).
# (§4) Efficacy: Depending on the histology, efficacy will be assessed using Response Evaluation Criteria in Solid Tumors (RECIST) v1.1 for solid tumors, the Revised Criteria for Malignant Lymphoma, the Guidelines from the National Cancer Institute Working Group for CLL, or the Response Assessment in Neuro-Oncology (RANO) criteria for glioblastoma. Each patient will be assessed by 1 or more of the following radiologic tests for tumor measurement: X-ray computerized tomography (CT) scan; magnetic resonance imaging (MRI); chest X-ray; PET scan; PET/CT imaging Standardized Uptake Values (SUVMAX).
# Data on 3 patients having leiomyosarcoma administered 4,4,4-trifluoro-N-[(1S)-2-[[(7S)-5-(2-hydroxyethyl)-6-oxo-7H-pyrido[2,3-d][3]benzazepin-7-yl]amino]-1-methyl-2-oxo-ethyl]butanamide hydrate in cycle 1 of an ongoing clinical trial are presented in Table 2. Patient 1 was previously treated for leiomyosarcoma with surgery, radiation therapy and 5 prior regimens of systemic therapeutic or targeted therapies. Patient 2 was previously treated for leiomyosarcoma with surgery, radiation therapy, brachytherapy and 3 prior regimens of systemic therapeutic or targeted therapies. Patient 3 was previously treated for leiomyosarcoma with surgery and 3 prior regimens of systemic therapeutic or targeted therapies.
# leiomyosarcoma tumor [3] = experiment: Clinical evaluation Part B: leiomyosarcoma patients, RECIST, tumor size, PET/CT SUVmax (Table 3); format: in vivo, human
# Source text: PET/CT imaging of cancer with combined positron emission tomography (PET) and X-ray computerized tomography (CT) scanners has become a standard component of diagnosis and staging in oncology. The use of the radiolabeled tracer 2-deoxy-2-[^18F]fluoro-D-glucose (FDG) is used for the majority of all PET/CT imaging procedures. One of the advantages of PET/CT imaging is its ability to detect, very early during treatment, significant changes in glucose metabolism or even complete shutoff of the neoplastic cell metabolism as a surrogate of tumor chemosensitivity assessment. In addition to cancer detection and staging, PET/CT imaging is becoming increasingly important as a quantitative monitor of individual response to therapy and an evaluation tool for new drug therapies. […] RECIST criteria, where response of tumors to therapy has traditionally assessed by measurement of changes in size/dimension of the tumors in CT images may not evidence early response to the therapy. Changes in size of tumors as a result of therapy may take a long period of time to develop. The most widely used parameter is the standardized uptake value (SUV) is defined as the maximal SUV value (SUVMAX) in the region of interest and reduction in SUVMAX is generally considered the most reliable indicator of the metabolic activity shutdown.
# as §1, §2, §3, §4
# Data on 19 additional patients having leiomyosarcoma administered 4,4,4-trifluoro-N-[(1S)-2-[[(7S)-5-(2-hydroxyethyl)-6-oxo-7H-pyrido[2,3-d][3]benzazepin-7-yl]amino]-1-methyl-2-oxo-ethyl]butanamide hydrate in Part B of an ongoing clinical trial are presented in Table 3. Choi Response Criteria, were recorded for a limited number of patients and are not reported in Table 3, Choi et al, J Clin Oncol. 2007; 25:1753-1759.
# [4] = Patient 1, initial oral dose 100 mg T.I.W., cycle 1
# [5] = first assigned dose 50 mg, individual LMS patients 8-22, Hydrate
# [6] = first assigned dose 75 mg, individual LMS patients 4-7, Hydrate
SMILES,atropisomer 2 (minor atropisomer) detected in equilibrium with atropisomer 1 ([1]; aqueous solutions),atropisomer 2 detected in equilibrium with atropisomer 1 ([1]; organic solvents),Overall Response DCE-US (leiomyosarcoma tumor [2]; [4]),Target Response (leiomyosarcoma tumor [2]; [4]) [% necrosis],"Additional CT scan imaging after 1 cycle (leiomyosarcoma tumor [2]; after 1 cycle (28 days), patients 1-3)","Necrosis of leiomyosarcoma tumor (CT scan of the liver, confirmed by DCE-US) (leiomyosarcoma tumor [2]; patients 1 and 2, first week of treatment)",Best Change in Tumor Size (%) (leiomyosarcoma tumor [3]; [5]),PET/CT Scan (change in SUVmax %) (leiomyosarcoma tumor [3]; [5]),Best Change in Tumor Size (%) (leiomyosarcoma tumor [3]; [6]),Best RECIST Response (leiomyosarcoma tumor [3]; [6]),PET/CT Scan (change in SUVmax %) (leiomyosarcoma tumor [3]; [6]),Clinical effect in leiomyosarcoma tumor patients (PET/CT SUVMAX data) (leiomyosarcoma tumor [3]; summary of Table 3 data)
"C[C@H](NC(=O)CCC(F)(F)F)C(=O)N[C@@H]1C(=O)N(CCO)c2ncccc2-c2ccccc21 [Compound 1, 4,4,4-trifluoro-N-[(1S)-2-[[(7S)-5-(2-hydroxyethyl)-6-oxo-7H-pyrido[2,3-d][3]benzazepin-7-yl]amino]-1-methyl-2-oxo-ethyl]butanamide]",8-9%,1-2%,–,–,–,–,–,–,–,–,–,–
"C[C@H](NC(=O)CCC(F)(F)F)C(=O)N[C@@H]1C(=O)N(CCO)c2ncccc2-c2ccccc21 [4,4,4-Trifluoro-N-[(1S)-2-[[(7S)-5-(2-hydroxyethyl)-6-oxo-7H-pyrido[2,3-d][3]benzazepin-7-yl]amino]-1-methyl-2-oxo-ethyl]butanamide Hydrate]",–,–,Confirmed,90,confirmed necrosis in all three patients,significant necrosis,13% and 60% and 37% and 19% and 20% and −13% and 33% and 24% and 23% and 50%,−7% and 37% and −5% and −30% and 0% and −11% and 16%,13% and 23% and 2%,Unconfirmed PR,−4% and 58% and 10% and 32%,beneficial clinical effect
